Measurements: patent US20190070128A1, “USE OF CANNABIDIVARIN IN THE TREATMENT OF AUTISM SPECTRUM DISORDER, ASSOCIATED DISORDERS AND SCHIZOPHRENIA” (GW Research Limited, priority 2016, published 2019)

Tests used:
[1] = system: neuroinflammatory markers (GFAP, CD11b, TNF-α); assay: neuroinflammation studies, hippocampus, Western blotting, prenatal VPA model; type: in vivo, rat
Description: At the end of the study, on PND 59, male rats treated with CBDV 20 mg/kg i.p. were sacrificed and the hippocampus was collected 24 hours after the last CBDV injection and stored at −80° C. for evaluation of changes in protein expression of components of the endocannabinoid system (CB1 and CB2 receptors, the endocannabinoid degrading enzymes, FAAH and MAGL and the synthetic enzymes, DAGLα and NAPE-PLD); neuroinflammatory markers (GFAP (astrocytic marker), Iba1 (microglial marker), CD11 b (activated microglial marker), TNF-α (proinflammatory cytokine) and iNOS (inflammatory mediator)); synaptic markers (Synaptophysin (synaptic vesicle protein), PSD-95 (post synaptic density protein) and the neurotrophins, BDNF and IGF by Western blotting.

Fmr1 KO mice = assay: novel object recognition task in Fmr1 KO mice; type: in vivo, mouse; settings: for discrimination index level: chronic
Description: Fmr1 KO mice and wild type mice were obtained and housed four per cage in a temperature of 21° C.±1° C. and humidity of 55%±10% controlled environment. Food and water were available ad libitum. All experiments were performed during the light phase of a 12 hour light/dark cycle (08:00 to 20:00). Animals were handled for one week before the start of experiments. All behavioural tests were performed by researchers blind to the different experimental groups.
On day one mice were habituated for 10 minutes to the empty V-maze in which the task was to be performed. On the second day the mice went back to the maze for 10 minutes which contained two identical objects at the end of each corridor in the V-maze.
The following day the mice were placed again in the same maze for a further 10 minutes but one of the familiar objects was replaced for a novel object. The total time spent exploring the novel and familiar object was recorded. A discrimination index was calculated as the difference between the time spent exploring the novel and familiar object divided by the total time exploring the two objects. A high discrimination index (0.3-0.5) is considered to reflect memory retention for the familiar object.
Adult mice (10-15 weeks old) were treated either acutely with one dose of CBDV on […] or were treated once daily with CBDV for 7 consecutive days. Mice were evaluated in the novel object recognition task after the first and sixth day of CBDV administration. Doses of CBDV used were 2, 10, 20, 100 and 200 mg/kg.

MeCP2 KO mice = assay: symptom scoring in MeCP2 KO mice; type: in vivo, mouse
Description: Starting from PND 28, mice received a daily intraperitoneal injection of CBDV (or vehicle) at the dose of 2, 20 and 200 mg/kg. Animals were then scored every other day to evaluate the effect of CBDV treatment on motor symptoms (hindlimb clasping, gait, mobility) as well as neurological signs and general conditions (breathing abnormalities, tremors and general condition) present in MeCP2 knockout (KO) mice.
Each of the six symptoms was scored from 0 to 2 (0 corresponds to the symptom being absent or the same as in the wild type (WT) animal; 1 when the symptom was present; 2 when the symptom was severe).
Mobility: the mouse is observed when placed on bench, then when handled gently. 0 =as WT. 1=reduced movement when compared with WT: extended freezing period when first placed on bench and longer periods spent immobile. 2=no spontaneous movement when placed on the bench; mouse can move in response to a gentle prod or a food pellet placed nearby.
Gait: 0=as WT. 1=hind legs are spread wider than WT when walking or running with reduced pelvic elevation, resulting in a ‘waddling’ gait. 2=more severe abnormalities: tremor when feet are lifted, walks backward or ‘bunny hops’ by lifting both rear feet at once.
Hindlimb clasping: mouse observed when suspend by holding base of the tail. 0=legs splayed outward. 1=hindlimbs are drawn toward each other (without touching) or one leg is drawn into the body. 2=both legs are pulled in tightly, either touching each other or touching the body.
Tremor: mouse observed while standing on the flat palm of the hand. 0=no tremor. 1=intermittent mild tremor. 2=continuous tremor or intermittent violent tremor.
Breathing: movement of flanks observed while animal is standing still. 0=normal breathing. 1=periods of regular breathing interspersed with short periods of more rapid breathing or with pauses in breathing. 2=very irregular breathing-gasping or panting.
General condition: mouse observed for indicators of general well-being such as coat condition, eyes and body stance. 0=clean shiny coat, clear eyes, and normal stance. 1=eyes dull, coat dull/un-groomed, and somewhat hunched stance. 2=eyes crusted or narrowed, piloerection, and hunched posture.

Ube3am-/p+ (AS) mice = assay: audiogenic seizure susceptibility in Angelman syndrome mice; type: in vivo, mouse; settings: for mice experiencing seizures: baseline 100%
Description: Heterozygous mice with maternal deficiency of Ube3A (Ube3am−/p+) and wild type (Ube3am+/p+) were purchased from The Jackson Laboratory (Jackson code: B6.12957-Ube3a tm1Alb/J) and maintained in a C57BL/6 background.
For the audiogenic seizure tests CBDV was administered at 20, 200 and 400 mg/kg.
Seizure susceptibility: Audiogenic seizures were induced by vigorously scraping scissors across the metal grating of the cage lid which produces a 100 DB high frequency loud noise. This was done for 20 seconds. This test consists of 3 phases. In phase 1 all mice were tested for epilepsy. In phase 2 all mice were injected daily with either vehicle or a drug for 7 or 10 days. In phase 3 mice were tested for epilepsy (one hour after last injection).

animal models of seizure = settings: in vivo; cited from earlier work

For `C=C(C)[C@@H]1CCC(C)=C[C@H]1c1c(O)cc(CCC)cc1O` [CBDV, Cannabidivarin], the “expression of increased inflammatory markers (GFAP, CD11b, TNFα) in hippocampus” value ([1]; VPA-exposed male rats, chronic CBDV 20 mg/kg i.p.) was “completely normalised”, the “expression of inflammatory markers in hippocampus” value ([1]; control rats, chronic CBDV) was “no effect” and the “increase of discrimination index over vehicle treated mice” value (Fmr1 KO mice; acute treatment, 2 mg/kg) was “not significant”. The discrimination index (Fmr1 KO mice; acute treatment, any of the doses) was “no effect”, the “discrimination index over vehicle treated knockout mice” value (Fmr1 KO mice; chronic (once daily for 7 days), 20 and 100 mg/kg) was “statistically significant increase” and the discrimination index level (Fmr1 KO mice; 20 mg/kg) was “over 0.3”. For the same compound, the discrimination index level (Fmr1 KO mice; 100 mg/kg) was “over 0.3”, the mobility (MeCP2 KO mice) was “reached statistical significance only at PND 64” and the breathing (MeCP2 KO mice; 2 mg/kg, PND 56 to 60) was “significantly improve”. For the same compound, the tremors (MeCP2 KO mice; 2 mg/kg, PND 63) was “still protective”, the total symptom score (MeCP2 KO mice; 2 mg/kg, every time point (PND 45, 47, 49, 55, 56, 57, 58, 60 and 64)) was “significantly improved” and the “general conditions (coat and eyes conditions)” value (MeCP2 KO mice; 20 mg/kg, PND 52) was “significantly effective only at the earlier time point”. The hindlimb clasping (MeCP2 KO mice; 200 mg/kg) was “did not significantly affect”, the gait (MeCP2 KO mice; 200 mg/kg, PND 53 to 57) was “significantly improved” and the tremors (MeCP2 KO mice; 200 mg/kg, PND 55 and 63) was “still able to reduce tremors”. For the same compound, the breathing (MeCP2 KO mice; 200 mg/kg, PND 57 and 60) was “effective”, the total symptom score (MeCP2 KO mice; 200 mg/kg, from PND 47 until PND 58) was “beneficial effect” and the “general conditions (coat and eyes conditions)” value (MeCP2 KO mice; 2 and 200 mg/kg, PND 52-64) was “significantly improved”. For the same compound, the tremors (MeCP2 KO mice; all three doses, PND 45-49) was “significantly delaying and reducing”, the “total symptom score: appearance of the phenotype” value (MeCP2 KO mice; all three doses, vs KO-vehicle) was “delay and attenuate” and the hindlimb clasping (MeCP2 KO mice; lower doses, PND 47 and 49) was “significantly attenuate”. The seizure susceptibility (Ube3am-/p+ (AS) mice; AS mice, 20 mg/kg or 200 mg/kg, 7 or 10 days treatment) was “no effect”, the “number of mice with seizures” value (Ube3am-/p+ (AS) mice; AS mice, 400 mg/kg) was “statistically significant decrease” and the mice experiencing seizures (Ube3am-/p+ (AS) mice; AS mice, 400 mg/kg, after 7 days treatment) was 60%. For the same compound, the mice experiencing seizures (Ube3am-/p+ (AS) mice; AS mice, 400 mg/kg, after 10 days treatment) was 30%, the “reduction of seizure susceptibility” value (Ube3am-/p+ (AS) mice; Angelman mice, 400 mg/kg, after 10 days treatment) was 70% and the “effect in animal models of seizure” value (animal models of seizure) was “effective”.
